According to the supplement of paper PMC10307832:

Key:
Test in all cases: relative viability (nuclei count vs DMSO), 5 days (fraction); higher = more cells survive
DM3189 + Lapatinib = compound: C1CN(CCN1)C2=CC=C(C=C2)C3=CN4C(=C(C=N4)C5=CC=NC6=CC=CC=C56)N=C3 [DM3189] + CS(=O)(=O)CCNCc1ccc(-c2ccc3ncnc(Nc4ccc(OCc5cccc(F)c5)c(Cl)c4)c3c2)o1 [Lapatinib] (partner 2 µM)
Outline: (§1)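 Cells from lung cancer lines were seeded into 1536-well plates and, one day later, dosed by pin tool. Treatments were either a single drug or a fixed dose of an anchor drug with five library-drug doses (not always all listed) in √10 steps. After 5 days, nuclei were stained in a one-step fixation (final 0.05% Triton X-100, 1% formaldehyde, 1 ug/ml Hoechst) and counted on 4× images, and relative viability is the treated-to-vehicle nuclei ratio, as the median of duplicate plates.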

DM3189 + Pemetrexed = compound: C1CN(CCN1)C2=CC=C(C=C2)C3=CN4C(=C(C=N4)C5=CC=NC6=CC=CC=C56)N=C3 [DM3189] + Nc1nc2[nH]cc(CCc3ccc(C(=O)N[C@@H](CCC(=O)O)C(=O)O)cc3)c2c(=O)[nH]1 [Pemetrexed] (partner 0.2 µM)
Outline: as §1

DM3189 + Bortezomib = compound: C1CN(CCN1)C2=CC=C(C=C2)C3=CN4C(=C(C=N4)C5=CC=NC6=CC=CC=C56)N=C3 [DM3189] + CC(C)C[C@H](NC(=O)[C@H](Cc1ccccc1)NC(=O)c1cnccn1)B(O)O [Bortezomib] (partner 0.002 µM)
Outline: as §1

DM3189 + Palbociclib = compound: C1CN(CCN1)C2=CC=C(C=C2)C3=CN4C(=C(C=N4)C5=CC=NC6=CC=CC=C56)N=C3 [DM3189] + CC(=O)c1c(C)c2cnc(Nc3ccc(N4CCNCC4)cn3)nc2n(C2CCCC2)c1=O [Palbociclib] (partner 0.5 µM)
Outline: as §1

DM3189 + Pictilisib = compound: C1CN(CCN1)C2=CC=C(C=C2)C3=CN4C(=C(C=N4)C5=CC=NC6=CC=CC=C56)N=C3 [DM3189] + CS(=O)(=O)N1CCN(Cc2cc3nc(-c4cccc5[nH]ncc45)nc(N4CCOCC4)c3s2)CC1 [Pictilisib] (partner 1 µM)
Outline: as §1

Cell Line	relative viability (DM3189 + Lapatinib; first compound 0.08 µM)	relative viability (DM3189 + Lapatinib; first compound 0.253 µM)	relative viability (DM3189 + Lapatinib; first compound 0.8 µM)	relative viability (DM3189 + Lapatinib; first compound 2.53 µM)	relative viability (DM3189 + Pemetrexed; first compound 0.08 µM)	relative viability (DM3189 + Pemetrexed; first compound 0.253 µM)	relative viability (DM3189 + Pemetrexed; first compound 0.8 µM)	relative viability (DM3189 + Pemetrexed; first compound 2.53 µM)	relative viability (DM3189 + Bortezomib; first compound 0.08 µM)	relative viability (DM3189 + Bortezomib; first compound 0.253 µM)	relative viability (DM3189 + Bortezomib; first compound 0.8 µM)	relative viability (DM3189 + Bortezomib; first compound 2.53 µM)	relative viability (DM3189 + Palbociclib; first compound 0.08 µM)	relative viability (DM3189 + Palbociclib; first compound 0.253 µM)	relative viability (DM3189 + Palbociclib; first compound 0.8 µM)	relative viability (DM3189 + Palbociclib; first compound 2.53 µM)	relative viability (DM3189 + Pictilisib; first compound 0.08 µM)	relative viability (DM3189 + Pictilisib; first compound 0.253 µM)	relative viability (DM3189 + Pictilisib; first compound 0.8 µM)	relative viability (DM3189 + Pictilisib; first compound 2.53 µM)
NCI-H1975	1.15	0.952	0.725	0.764	0.27	0.281	0.266	0.278	0.454	0.371	0.297	0.353	0.697	0.57	0.379	0.333	0.42	0.309	0.269	0.201
NCI-H1993	–	0.533	0.722	0.746	0.622	0.626	0.545	0.541	–	0.915	1.17	1.27	0.779	0.809	0.571	0.736	–	0.85	0.852	0.718
NCI-H2009	1.13	0.888	0.684	0.916	1.07	0.988	0.985	1	1.24	1.04	0.782	0.984	0.264	0.195	0.184	0.217	1	0.725	0.572	0.75
NCI-H2023	1.1	0.739	0.503	0.286	0.235	0.231	0.236	0.178	1.12	0.961	0.823	0.514	0.38	0.396	0.4	0.336	0.26	0.24	0.201	0.235
NCI-H2085	0.806	0.77	0.765	0.848	0.885	0.886	0.941	0.869	1.08	1.04	1.03	0.958	0.47	0.457	0.468	0.537	0.379	0.473	0.393	0.409
NCI-H2087	1.27	0.871	0.846	1.06	0.724	0.659	0.67	0.573	1.1	0.774	0.768	0.736	0.212	0.197	0.224	0.238	1.06	0.808	0.675	0.818
